Assay type in all cases: cell-based, human
For experiment [1], the system named is IL-10 production by cells of HC donors. Conditions: for IL-10 SFC: HC donors; for # resp IL-10: number of responding HC donors out of # tested (5 or 6).
For experiment [2], the system named is IFNγ production by cells of HC donors. Put plainly: IFNγ production (SFC) in HC donors in response to broadly conserved peptides. Conditions: for IFNg SFC: HC donors; for # resp IFNg: number of responding HC donors out of # tested (5 or 6). How it is done: To test this hypothesis, the HLA binding capacity of the 4241 broadly conserved peptides for common HLA class II alleles was predicted. Next peptides were selected predicted to bind with high affinity to alleles expressed in representative HC donors were tested for IL-10 production. Several frequently recognized IL-10 producing peptides could be identified (FIG. 13A), none of which produced a significant amount of IFNγ (FIG. 13B).

Another experiment deals with CD4+ memory T cells.
Experiment [3] has as its system T cells of LTBI and HC donors. The experiment is described as follows: antigen reactivity in LTBI vs HC donors (LTBI-specific or crossreactive). Conditions: response frequency and magnitude in LTBI vs HC donors, FIG. 10. From the text: The data herein implies that preexisting immunity and occasional boosting might be provided by exposure to NTMs, in a low MTB-complex exposure population such as the one from the general San Diego area. This might be viewed as desirable, or alternatively contributing an undesired confounding factor in evaluation of vaccination strategies. Regardless, whether or not preexisting, non-TB-complex related reactivity is present in the general population is an important issue has implication for the development of vaccination strategies. To further investigate this issue, epitope reactivity data (Lindestamm-Arlehamn et al, 2012) was mapped back to the specific antigens from which the epitopes were derived. Antigens recognized by 2 or more donors were further categorized as LTBI-specific or crossreactive according to the following criteria; antigens were categorized as LTBI-specific if there was a lack of reactivity in HC individuals, or if the ratio between response frequency and total SFC for LTBI/HC were >4. All other antigens were categorized as crossreactive.

On to ASCKYMKMITPAALL [Peptide 3580.0015], for which, in experiment [1], the “IL-10 SFC” value was found to be 730 SFC and the “# resp IL-10” value is on record as 4. Moreover, in experiment [2], the “IFNg SFC” value came out at 32 SFC and the “# resp IFNg” value was determined as 0.
Taken in the same sequence, the figures for ASGLIFGWLAFLLVF [Peptide 3580.0018] were 652 SFC, 4, 20 SFC and 0.
In the case of ASVSKQFTATAILLL [Peptide 3580.0013], in experiment [1], the “IL-10 SFC” value is reported as 918 SFC and the “# resp IL-10” value turned out to be 4. Moreover, in experiment [2], the “IFNg SFC” value is given as 23 SFC and the “# resp IFNg” value was found to be 0.
In the case of ATFAGIYFWFPKMTG [Peptide 3580.0008], in experiment [1], the “IL-10 SFC” value is recorded as 1328 SFC and the “# resp IL-10” value is given as 6. In experiment [2], the “IFNg SFC” value stood at 28 SFC and the “# resp IFNg” value came to 0.
On the same counts, the results for DRIAQLLVQRVELVE [Peptide 3580.0009] are 1018 SFC, 5, 50 SFC and 0.
On the same counts, the results for ESFLFYSGFYLPMYW [Peptide 3580.0002] are 570 SFC, 4, 8 SFC and 0.
Taken in the same sequence, the figures for FAIMFEALFILTTVD [Peptide 3580.0006] were 915 SFC, 5, 32 SFC and 0.
Regarding FTGKPEFVENFFMFI [Peptide 3580.0004], in experiment [1], the “IL-10 SFC” value turned out to be 622 SFC and the “# resp IL-10” value came out at 3. Moreover, in experiment [2], the “IFNg SFC” value worked out at 27 SFC and the “# resp IFNg” value was 0.
Taken in the same sequence, the figures for FVTYWSFRMMIGLMA [Peptide 3580.0003] were 563 SFC, 4, 10 SFC and 0.
On the same counts, the results for GRFIALLRIFAGPLA [Peptide 3580.0011] are 1480 SFC, 5, 52 SFC and 0.
Regarding IGQFGIGFYSSFMVA [Peptide 3580.0012], in experiment [1], the “IL-10 SFC” value is given as 468 SFC and the “# resp IL-10” value stood at 3. Besides, in experiment [2], the “IFNg SFC” value was determined as 10 SFC and the “# resp IFNg” value amounted to 0.
On the same counts, the results for LAMFAIIFFWTPPHT [Peptide 3580.0016] are 1142 SFC, 5, 27 SFC and 0.
On the same counts, the results for LPFFSFMTYLIAVPT [Peptide 3580.0007] are 505 SFC, 4, 22 SFC and 0.
Taken in the same sequence, the figures for LSSTEFELLRFLMRN [Peptide 3580.0020] were 1017 SFC, 5, 33 SFC and 0.
Regarding MVAFMVRYTSGYLCV [Peptide 3580.0017], in experiment [1], the “IL-10 SFC” value worked out at 1058 SFC and the “# resp IL-10” value amounted to 4. In addition, in experiment [2], the “IFNg SFC” value is reported as 8 SFC and the “# resp IFNg” value is on record as 0.
As to QAAVVRFQEAANKQK [CFP1052-66], the “epitope-specific cells in CD4+ naive subset or CD4+ memory subset of control donors” value in the experiment with CD4+ memory T cells was “No epitope-specific cells were detected”. Further, the “frequency of epitope-specific CD4+ memory T cells, median” value in the experiment with CD4+ memory T cells (5 LTBI donors, median (interquartile range 0.03-0.33)) is on record as 0.09.
As for RELIRAFWPGALSLV [Peptide 3580.0019], in experiment [1], the “IL-10 SFC” value is reported as 422 SFC and the “# resp IL-10” value amounted to 3. In addition, in experiment [2], the “IFNg SFC” value is given as 27 SFC and the “# resp IFNg” value is 0.
With “Rv3804c: MTB antigen currently included in TB vaccines in clinical development”, the “antigen reactivity category (LTBI-specific or crossreactive)” value in experiment [3] was “widely cross-reactive”.
Take YVLFLFTQTVRHRDF [Peptide 3580.0014]: in experiment [1], the “IL-10 SFC” value was found to be 975 SFC and the “# resp IL-10” value was 4. Moreover, in experiment [2], the “IFNg SFC” value stood at 53 SFC and the “# resp IFNg” value amounted to 0.

Values taken from US10406218B2 (priority 2014, dated 2019).
